Data reported in ChEMBL document CHEMBL1201862, “PubChem BioAssay data set” (2004).
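Dose response: 5 concentrations. Exposure: 48 h. Format: 96-well plates. Endpoint: linear interpolation; highest concentration if not reached. Abbreviation: GI50, concentration required for 50% inhibition of growth.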 The source made the active and inactive calls. Rule as the data show it: active = GI50 up to about 1.1 µM and inactive = higher.

Tests used:
Assay in all cases: NCI-60 cell line screen, 48 h
[1] = system: A498
[2] = system: BT-549
[3] = system: CAKI-1
[4] = system: DU-145
[5] = system: HCC 2998
[6] = system: HL-60
[7] = system: IGROV-1
[8] = system: M14
[9] = system: MOLT-4
[10] = system: NCI-H226
[11] = system: OVCAR-3
[12] = system: OVCAR-5
[13] = system: OVCAR-8
[14] = system: RXF 393
[15] = system: SF-539
[16] = system: SK-MEL-28
[17] = system: SNB-75
[18] = system: SW-620
[19] = system: UACC-257
[20] = system: UO-31

Measured: GI50

COc1cc(O)c2c(=O)c(OC)c(-c3ccc(OC)c(O)c3)oc2c1 [AYANIN]
inactive: [1] 3.44 µM | [2] 20.4 µM | [3] 6.71 µM | [4] 20 µM | [5] 28.2 µM | [6] > 100 µM | [7] 25.4 µM | [8] 52.2 µM | [9] 42.7 µM | [10] > 100 µM | [11] 63.8 µM | [12] 37.4 µM | [13] 66.5 µM | [14] 57.3 µM | [15] 18.4 µM | [16] > 100 µM | [17] 6.14 µM | [18] > 100 µM | [19] 85.7 µM | [20] 28.9 µM
